biological target: EGFR (human) (UniProt P00533); conditions: a431
Sequence (P00533 whole entry, looked up): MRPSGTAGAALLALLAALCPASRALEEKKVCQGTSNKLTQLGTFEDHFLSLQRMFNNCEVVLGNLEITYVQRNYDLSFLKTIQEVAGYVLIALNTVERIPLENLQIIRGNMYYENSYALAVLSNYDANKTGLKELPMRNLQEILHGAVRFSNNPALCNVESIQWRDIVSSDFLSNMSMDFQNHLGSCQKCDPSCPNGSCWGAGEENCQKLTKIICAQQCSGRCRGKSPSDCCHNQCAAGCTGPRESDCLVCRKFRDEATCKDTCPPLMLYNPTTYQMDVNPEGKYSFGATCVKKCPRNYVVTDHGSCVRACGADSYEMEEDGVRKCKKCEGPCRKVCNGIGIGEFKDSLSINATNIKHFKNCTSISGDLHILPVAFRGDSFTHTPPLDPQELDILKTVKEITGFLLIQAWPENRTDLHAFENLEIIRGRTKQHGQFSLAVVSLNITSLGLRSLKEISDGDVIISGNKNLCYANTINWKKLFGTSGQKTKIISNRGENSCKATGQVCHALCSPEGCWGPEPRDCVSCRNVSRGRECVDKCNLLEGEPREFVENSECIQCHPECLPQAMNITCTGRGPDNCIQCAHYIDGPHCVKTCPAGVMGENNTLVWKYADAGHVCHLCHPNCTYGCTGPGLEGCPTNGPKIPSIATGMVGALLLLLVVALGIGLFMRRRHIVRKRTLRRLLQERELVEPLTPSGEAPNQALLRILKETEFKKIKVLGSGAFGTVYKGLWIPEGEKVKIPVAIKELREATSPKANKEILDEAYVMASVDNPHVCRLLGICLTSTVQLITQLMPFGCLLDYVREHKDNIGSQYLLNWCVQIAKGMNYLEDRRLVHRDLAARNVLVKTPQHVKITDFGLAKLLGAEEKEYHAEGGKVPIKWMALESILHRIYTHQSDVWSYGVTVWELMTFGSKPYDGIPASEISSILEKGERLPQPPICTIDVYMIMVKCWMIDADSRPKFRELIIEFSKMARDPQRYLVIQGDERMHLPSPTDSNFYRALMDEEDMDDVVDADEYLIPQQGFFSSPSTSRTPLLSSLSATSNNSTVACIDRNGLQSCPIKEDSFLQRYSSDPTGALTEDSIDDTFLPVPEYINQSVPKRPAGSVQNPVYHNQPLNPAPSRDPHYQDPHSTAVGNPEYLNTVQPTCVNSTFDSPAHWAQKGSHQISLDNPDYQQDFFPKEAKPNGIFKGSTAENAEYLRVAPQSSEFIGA

| SMILES | IC50 [nM] |
| --- | --- |
| O=C(CO)Nc1cc2c(cc1F)C(=Cc1[nH]c3c(c1-c1ccc(F)cc1)C(=O)NCC3)C(=O)N2 | 3060 |
| Cc1c(C=C2C(=O)Nc3cccc(-c4cccc(F)c4F)c32)[nH]c2c1C(=O)N(CCN1CCCC1)CC2 | 2190 |
| Cc1c(C=C2C(=O)Nc3ccc(F)cc32)[nH]c2c1C(=O)N(CCN1CCCC1)CC2 | 1310 |
| Cc1c(C=C2C(=O)Nc3ccc(Cl)cc32)[nH]c2c1C(=O)N(CCN1CCOCC1)CC2 | 10200 |
| CCN(CC)CCN1CCc2[nH]c(C=C3C(=O)Nc4cc(NC(C)=O)c(F)cc43)c(C)c2C1=O | 9290 |
| CCN(CC)CCN1CCc2[nH]c(C=C3C(=O)Nc4cccc(CCO)c43)c(C)c2C1=O | 3850 |
| Cc1c(C=C2C(=O)Nc3ccc(F)cc32)[nH]c2c1C(=O)N(CCN1CCOCC1)CC2 | 1350 |
| CCN(CC)CCN1CCc2[nH]c(C=C3C(=O)Nc4cccc(-c5cccc(Cl)c5F)c43)c(C)c2C1=O | 7320 |
| COCC(=O)Nc1cc2c(cc1F)C(=Cc1[nH]c3c(c1-c1ccc(F)cc1)C(=O)NCC3)C(=O)N2 | 2030 |
| Cc1c(C=C2C(=O)Nc3cccc(-c4cccc(Cl)c4F)c32)[nH]c2c1C(=O)N(CCN1CCOCC1)CC2 | 6110 |
| CCN(CC)CCN1CCc2[nH]c(C=C3C(=O)Nc4cccc(-c5ccc(Cl)cc5F)c43)c(C)c2C1=O | 3230 |
| CCN(CC)CCN1CCc2[nH]c(C=C3C(=O)Nc4c(NC(C)=O)cc(F)cc43)c(C)c2C1=O | 1380 |
| CCN(CC)CCN1CCc2[nH]c(C=C3C(=O)Nc4ccc(NC=O)cc43)c(C)c2C1=O | 840 |
| Cc1c(C=C2C(=O)Nc3cc(NC(=O)CO)c(F)cc32)[nH]c2c1C(=O)N(CCN1CCCCC1)CC2 | 1250 |
| CCN(CC)CCN1CCc2[nH]c(C=C3C(=O)Nc4ccc(Br)cc43)c(C)c2C1=O | 1260 |
| Cc1c(C=C2C(=O)Nc3ccc(NC=O)cc32)[nH]c2c1C(=O)N(CCN1CCCCC1)CC2 | 120 |
| Cc1c(C=C2C(=O)Nc3cccc(CCO)c32)[nH]c2c1C(=O)N(CCN1CCCC1)CC2 | 1680 |
| Cc1c(C=C2C(=O)Nc3cccc(-c4cccc(Cl)c4F)c32)[nH]c2c1C(=O)N(CCN1CCCC1)CC2 | 13800 |
| CCN(CC)CCN1CCc2[nH]c(C=C3C(=O)Nc4c(NC=O)cc(F)cc43)c(C)c2C1=O | 1380 |
| Cc1c(C=C2C(=O)Nc3ccc(NS(C)(=O)=O)cc32)[nH]c2c1C(=O)N(CCN1CCOCC1)CC2 | 2850 |
| CCN(CC)CCN1CCc2[nH]c(C=C3C(=O)Nc4c(N)cc(F)cc43)c(C)c2C1=O | 12600 |
| CCN(CC)CCN1CCc2[nH]c(C=C3C(=O)Nc4cccc(C5CCNCC5)c43)c(C)c2C1=O | 350 |

| SMILES | IC50 [nM] |
| --- | --- |
| Cc1c(C=C2C(=O)Nc3cccc(Br)c32)[nH]c2c1C(=O)N(CCN1CCCC1)CC2 | 200 |
| CCN(CC)CCN1CCc2[nH]c(C=C3C(=O)Nc4ccc(-c5ccc(OC)cc5)cc43)c(C)c2C1=O | 3890 |
| Cc1c(C=C2C(=O)Nc3cccc(CCO)c32)[nH]c2c1C(=O)N(CCN1CCOCC1)CC2 | 16500 |
| CCN(CC)CCN1CCc2[nH]c(C=C3C(=O)Nc4ccc(F)cc43)c(C)c2C1=O | 1090 |
| CCN(CC)CCN1CCc2[nH]c(C=C3C(=O)Nc4cccc(-c5cccc(F)c5F)c43)c(C)c2C1=O | 380 |
| CCN(CC)CCN1CCc2[nH]c(C=C3C(=O)Nc4cc(NC=O)c(F)cc43)c(C)c2C1=O | 370 |
| CCN(CC)CCN1CCc2[nH]c(C=C3C(=O)Nc4ccc(OC)cc43)c(C)c2C1=O | 4350 |
| Cc1c(C=C2C(=O)Nc3c(Br)cc(F)cc32)[nH]c2c1C(=O)N(CCN1CCCCC1)CC2 | 270 |
| Cc1c(C=C2C(=O)Nc3ncc(Br)cc32)[nH]c2c1C(=O)N(CCN1CCOCC1)CC2 | 15900 |
| Cc1c(C=C2C(=O)Nc3cc(NCc4ccc(F)cc4)c(F)cc32)[nH]c2c1C(=O)N(CCN1CCCCC1)CC2 | 340 |
| Cc1c(C=C2C(=O)Nc3ncc(Br)cc32)[nH]c2c1C(=O)N(CCN1CCCCC1)CC2 | 1660 |
| Cc1c(C=C2C(=O)Nc3ncnc(Nc4ccc(F)c(Cl)c4)c32)[nH]c2c1C(=O)N(CCN1CCOCC1)CC2 | 330 |
| Cc1c(C=C2C(=O)Nc3cc(N)c(F)cc32)[nH]c2c1C(=O)N(CCN1CCCC1)CC2 | 10700 |
| CCN(CC)CCN1CCc2[nH]c(C=C3C(=O)Nc4ncnc(Nc5ccc(F)c(Cl)c5)c43)c(C)c2C1=O | 67 |
| Cc1c(C=C2C(=O)Nc3cccc(C4CCNCC4)c32)[nH]c2c1C(=O)N(CCN1CCOCC1)CC2 | 1900 |
| CCN(CC)CCN1CCc2[nH]c(C=C3C(=O)Nc4cccc(Br)c43)c(C)c2C1=O | 330 |
| Cc1c(C=C2C(=O)Nc3cccc(-c4cccc(F)c4)c32)[nH]c2c1C(=O)N(CCN1CCCCC1)CC2 | 180 |
| CCN(CC)CCN1CCc2[nH]c(C=C3C(=O)Nc4ccc(Cl)cc43)c(C)c2C1=O | 1040 |
| Cc1c(C=C2C(=O)Nc3cccc(-c4c(F)cccc4F)c32)[nH]c2c1C(=O)N(CCN1CCCCC1)CC2 | 530 |
| CCN(CC)CCN1CCc2[nH]c(C=C3C(=O)Nc4cc(N)c(F)cc43)c(C)c2C1=O | 10500 |
| Cc1c(C=C2C(=O)Nc3cccc(C4CCNCC4)c32)[nH]c2c1C(=O)N(CCN1CCCC1)CC2 | 590 |
